From PMC11642236, “Valorization of Hom Thong Banana Peel (Musa sp., AAA Group) as an Anti-Melanogenic Agent Through Inhibition of Pigmentary Genes and Molecular Docking Study” (International Journal of Molecular Sciences, 2024)
Values after ≈ are worked out from the molar mass of the structure shown.

Molecular target: T1, mushroom tyrosinase
T1 construct: gene PPO3; PDB 2Y9X used only for docking
Assay: L-dopachrome formation, absorbance at […] nm
Format: biochemical, Agaricus bisporus
Settings: L-DOPA as substrate (diphenolase); 0.1 M phosphate buffer, room temperature, 30 min

IC50 Values (mg/mL) / L-DOPA as the Substrate [mg/mL]	SMILES
3.44 ± 0.04 (≈ 12.6 mM)	OC[C@H]1O[C@@H](Oc2ccc(O)cc2)[C@H](O)[C@@H](O)[C@@H]1O [Arbutin, reference compound]
6.42 ± 0.45 (≈ 22.1 mM)	Oc1cc(O)c2c(c1)O[C@H](c1ccc(O)c(O)c1)[C@@H](O)C2 [Catechin]
3.93 ± 0.09 (≈ 20.2 mM)	COc1cc(/C=C/C(=O)O)ccc1O [Ferulic acid]
3.62 ± 0.08 (≈ 10 mM)	O=C(/C=C/c1ccc(O)c(O)c1)O[C@H](Cc1ccc(O)c(O)c1)C(=O)O [Rosmarinic acid]
4.19 ± 0.15 (≈ 25.5 mM)	O=C(O)/C=C/c1ccccc1O [o-Coumaric acid]
